According to PubChem BioAssay AID1996:
≈ marks a conversion by molar mass, not a printed value.

Conditions: buffer; pH 7.4; 200.0 µM

Row | SMILES | solubility kinetic
1 | COc1ccc(/C=C2\Oc3cc(OC(=O)N4CCOCC4)ccc3C2=O)cc1 | < 0.8 µg/mL
2 | CCOC(=O)c1ccc(NC(=O)C2COc3ccccc3O2)cc1 (stereo unspecified) | 2.1 µg/mL (≈ 6.42 µM)
3 | O=S(=O)(Nc1ccc(Cl)cn1)c1ccc(F)cc1 | > 43 µg/mL
4 | COc1ccc(OCCC(=O)OCC(=O)NC2CCCCC2)cc1 | 37 µg/mL (≈ 110 µM)
5 | CCOC(=O)C1=C(C)OC(N)=C(C#N)C1c1cc(SCC)oc1C (stereo unspecified) | 23.9 µg/mL (≈ 68.6 µM)
6 | Cc1ccc(C)n1-c1nccc(-c2ccco2)n1 | 23.5 µg/mL (≈ 98.2 µM)
7 | Cn1cccc1C(=O)NC1CCCCC1 | > 30.9 µg/mL
8 | NS(=O)(=O)c1ccc(NC(=S)NC(=O)C2CCCC2)cc1 | > 49.1 µg/mL
9 | O=C(O)CN1C(=O)C(=O)N(Cc2cccc(F)c2)C1=O | > 42 µg/mL
10 | CCn1ccc(C(=O)Nc2ncc(C)s2)n1 | > 35.4 µg/mL
11 | O=C(CN1C(=O)C2CCCCC2C1=O)OCC(=O)c1ccc(F)cc1 (stereo unspecified) | 49.5 µg/mL (≈ 143 µM)
12 | CC1CCCCN1C(=O)C1COc2ccccc2O1 (stereo unspecified) | 35.5 µg/mL (≈ 136 µM)
13 | CC1SC2(NC1=O)C1CC3CC(C1)CC2C3 (stereo unspecified) | 3.4 µg/mL (≈ 14.3 µM)
14 | Cc1cccc(CC(=O)N2CCOCC2)c1 | > 32.9 µg/mL
15 | CC(=O)c1cccc(Nc2nc(-c3sc(N)nc3C)cs2)c1 | 4.5 µg/mL (≈ 13.6 µM)
16 | Cc1nc(SCC(=O)N2CCCCC2)c2c(C)c(C)sc2n1 | 33.7 µg/mL (≈ 100 µM)
17 | O=C(NCc1ccccn1)c1n[nH]c(=O)c2ccccc12 | > 42 µg/mL
18 | Cn1ccnc1Sc1ccc(C(N)=O)cc1[N+](=O)[O-] | 38.7 µg/mL (≈ 139 µM)
19 | Nc1nc2ncc(C(=O)c3cc(F)ccc3O)cc2s1 | 7 µg/mL (≈ 24.2 µM)
20 | Cn1c(=NC(=O)COc2ccccc2)sc2cccc(F)c21 | < 0.3 µg/mL
21 | O=C(CN1C(=O)NC2(CCCC2)C1=O)Nc1ccccc1N1CCCC1 | 46.4 µg/mL (≈ 130 µM)
22 | Cc1ccc(-c2ccc(C(=O)NCCCNC(=O)c3cnccn3)o2)cc1Cl | 6.3 µg/mL (≈ 15.8 µM)
23 | C=CCN1C(=O)C2(OCCCO2)c2cccc(C)c21 | 37.9 µg/mL (≈ 146 µM)
24 | CCOc1ccc(Br)cc1S(=O)(=O)Nc1cccc(S(=O)(=O)Nc2ccccc2C(=O)O)c1 | > 83.3 µg/mL
25 | CC(=O)c1ccc(OCC(=O)Nc2ccccc2N2CCCC2)cc1 | 44.4 µg/mL (≈ 131 µM)

Row | SMILES | solubility kinetic
26 | CC(C)(C)C(=O)N1CCN(c2nc3ccc(Cl)cc3s2)CC1 | 2.3 µg/mL (≈ 6.81 µM)
27 | Cn1c2ccccc2c2cc([N+](=O)[O-])ccc21 | < 0.2 µg/mL
28 | CCN(c1ccccc1)S(=O)(=O)c1ccc(C(=O)NC2CCN(Cc3ccccc3)CC2)cc1 | 47.8 µg/mL (≈ 100 µM)
29 | CCSc1nsc(NC(=O)Nc2ccccc2OC)n1 | 2.6 µg/mL (≈ 8.38 µM)
30 | C#CC(CCN1CCCCC1)(OC)c1ccccc1.Cl (stereo unspecified) | 27.2 µg/mL
31 | Cc1noc(C)c1-c1nc(CSc2ccccc2)no1 | 0.8 µg/mL (≈ 2.78 µM)
32 | CC(=O)c1ccc(N2CCN(C(=O)c3cccs3)CC2)c(F)c1 | > 49.9 µg/mL
33 | O=C(CN1CCOCC1)Nc1ccc(NC(=O)c2ccccc2F)cc1 | > 53.6 µg/mL
34 | CC(C)c1nc2cc(Cl)ccc2n(Cc2ccccc2)c1=O | 0.4 µg/mL (≈ 1.28 µM)
35 | O=C(/C=C/c1ccccc1)NCc1ccc2c(c1)OCO2 | 2.5 µg/mL (≈ 8.89 µM)
36 | Cc1ccnc(NCc2cccc3ccccc23)c1.Cl | 15.8 µg/mL
37 | CCOc1ccc(S(=O)(=O)NCCC(=O)N2CCCN(C)CC2)cc1 | 50.4 µg/mL (≈ 136 µM)
38 | O=C(NC(=S)N1CCCCCC1)c1cccc([N+](=O)[O-])c1 | > 46.1 µg/mL
39 | Cc1ccc(CNC(=O)COC(=O)c2cccnc2Cl)cc1 | 23.7 µg/mL (≈ 74.4 µM)
40 | O=C(Nc1cccc(Cl)c1Cl)C1CCCO1 (stereo unspecified) | 26.7 µg/mL (≈ 103 µM)
41 | CN1CCCN(C(=O)c2c(F)cccc2Cl)CC1 | > 40.6 µg/mL
42 | COc1ccc(CC(=O)NCCCSc2ccccc2)cc1OC | 45.9 µg/mL (≈ 133 µM)
43 | O=C1NC2=C(C(=O)OC2)C(c2ccc(OC(F)(F)F)cc2)N1 (stereo unspecified) | > 47.1 µg/mL
44 | Cc1ccc(C(=O)CCC(=O)Nc2cc(C)ccn2)cc1 | 6.2 µg/mL (≈ 22 µM)
45 | CC1(C)COC(Cn2c3ccccc3c3ccccc32)O1 (stereo unspecified) | < 0.6 µg/mL
46 | CC(=O)Nc1ccc(S(=O)(=O)NCCC(=O)N2CCN(c3ccccc3Cl)CC2)cc1 | > 69.7 µg/mL
47 | Cc1ccc(OP(N)(=O)Oc2ccc(C)cc2)cc1 | 29.6 µg/mL (≈ 107 µM)
48 | CC(=O)Nc1ccc(OCc2cccc3ccccc23)cc1 | < 0.6 µg/mL
49 | COc1ccc(C2NC(=O)CCC2[N+](=O)[O-])cc1 (stereo unspecified) | > 37.5 µg/mL
50 | Cn1cccc1C(=O)C(=O)Nc1ccccc1C(F)(F)F | 5 µg/mL (≈ 16.9 µM)

Row | SMILES | solubility kinetic
51 | CCn1cnc2scc(-c3ccc(OC)cc3)c2c1=O | > 43 µg/mL
52 | COCCNC(=O)c1cc2c(s1)-c1ccc(Cl)cc1SC2 | 4.5 µg/mL (≈ 13.2 µM)
53 | O=Cc1c(NCc2ccc(F)cc2)c2ccccc2[nH]c1=O | 2.6 µg/mL (≈ 8.77 µM)
54 | CCCCCCCCCCCCCCCC[N+](C)(C)CC.[Br-] | 34.5 µg/mL
55 | O=C(Cn1c(=S)[nH]c2ccccc2c1=O)NCCc1ccccc1 | 0.9 µg/mL (≈ 2.65 µM)
56 | CC(NC(=O)c1c(O)c2ccccc2n(C)c1=O)c1ccccc1 (stereo unspecified) | < 0.3 µg/mL
57 | Cl.c1ccc2c3c([nH]c2c1)CCNC3 | > 31.3 µg/mL
58 | CCC(=O)c1ccc(OCC(=O)OCC(=O)N(CCC#N)c2ccc3c(c2)OCCO3)cc1 | 47.5 µg/mL (≈ 105 µM)
59 | CN1CCN(C(=S)NC(CC(=O)c2ccccc2)c2ccccc2)CC1 (stereo unspecified) | 43.2 µg/mL (≈ 118 µM)
60 | COCCN(C(=S)Nc1c(C)cccc1C)C(C)c1ccco1 (stereo unspecified) | 47.1 µg/mL (≈ 142 µM)
61 | C1N2CN3CN1CN(C2)C3 | > 21 µg/mL
62 | Cc1cc(C(=O)Nc2ccc(Cl)cc2)on1 | 3.8 µg/mL (≈ 16.1 µM)
63 | COCCNC(=O)Cn1cc(C=C2C(=O)NC(=O)NC2=O)c2ccccc21 | 6.3 µg/mL (≈ 17 µM)
64 | CCC(Sc1nc2ccccc2o1)C(=O)O (stereo unspecified) | 35.2 µg/mL (≈ 148 µM)
65 | COc1ccccc1C1CCN(C(=O)c2cccc([N+](=O)[O-])c2)CC1 | 39.5 µg/mL (≈ 116 µM)
66 | COC(=O)C1=C(N)Oc2cc(C)[nH]c(=O)c2C1c1ccccc1OC (stereo unspecified) | 46.5 µg/mL (≈ 136 µM)
67 | CC(C)(C)NC(=O)COC(=O)c1ccc(Cl)cc1O | 7.3 µg/mL (≈ 25.5 µM)
68 | COc1cccc(Oc2nc(-c3ccncc3)nc3ccccc23)c1 | < 0.2 µg/mL
69 | O=C(OCc1cncs1)c1ccccc1Cl | > 38.1 µg/mL
70 | COc1ccc(OCC(O)CNS(=O)(=O)c2ccc(C)cc2)cc1 (stereo unspecified) | > 52.7 µg/mL
71 | COc1cccc(CC2(CO)CCN(S(=O)(=O)N(C)C)CC2)c1 | > 51.4 µg/mL
72 | CCc1ccc2nc(NC(=O)CN3C(=O)NC4(CCCC4)C3=O)sc2c1 | 2.6 µg/mL (≈ 6.98 µM)
73 | O=C1CSC(=Nc2ccc(Cl)cc2)N1Cc1ccco1 | 10.9 µg/mL (≈ 35.5 µM)
74 | CC1(C)CC(=O)C(CC(=O)N2CCC(Cc3ccccc3)CC2)C(=O)C1 | > 53.3 µg/mL
75 | Cc1ccc(C(=O)N2CCCC(Nc3ccc(F)c(F)c3)C2)cn1 (stereo unspecified) | > 49.7 µg/mL

Row | SMILES | solubility kinetic
76 | O=C(O)c1ccc(C(=O)Nc2cccc3ccccc23)c(C(=O)O)c1 | > 50.3 µg/mL
77 | COc1ccc(CCNC(=O)CN2C(=O)NC3(CCCCC3C)C2=O)cc1 (stereo unspecified) | > 56 µg/mL
78 | CCOc1ccccc1NC(=O)c1cc2ccccc2oc1=O | < 0.7 µg/mL
79 | CC(=O)NCCc1nc2ccccc2n1CCOc1ccccc1C | > 50.6 µg/mL
80 | O=S(=O)(NC1CC1)c1ccccc1 | 28.3 µg/mL (≈ 143 µM)
81 | O=C(CNC(=O)c1ccc(Cl)cc1Cl)OCc1cn2cc(Br)ccc2n1 | 29.7 µg/mL (≈ 65 µM)
82 | COc1ccc(C(=O)CSc2nc(C)cc(C)n2)cc1C | 17.4 µg/mL (≈ 57.5 µM)
83 | Cc1ccc(-c2nc(Nc3ccc(O)cc3)c3ccccc3n2)cc1 | 0.9 µg/mL (≈ 2.75 µM)
84 | CC(C)[C@H](NC(=O)c1ccccc1F)C(=O)Nc1ccc(F)c(F)c1 | 4.9 µg/mL (≈ 14 µM)
85 | O=C(COc1ccc(Cl)cc1Br)Nc1ccncc1 | 5 µg/mL (≈ 14.6 µM)
86 | Nc1cccc(NC(=O)CN2CCOCC2)c1 | > 35.3 µg/mL
87 | O=C(COC(=O)c1ccc(F)cc1F)c1ccc[nH]1 | > 39.8 µg/mL
88 | O=C(COC(=O)c1cc[n+]([O-])cc1)Nc1ccc(Cl)cc1Cl | > 51.2 µg/mL
89 | Cl.NCCSSCCN | 31.6 µg/mL
90 | Cc1ccc2c(c1)N(CC(=O)Nc1ccccc1F)C(=O)CO2 | 0.7 µg/mL (≈ 2.23 µM)
91 | O=C(OCC(=O)N1CCC(Cc2ccccc2)CC1)c1cncc(Br)c1 | 9.9 µg/mL (≈ 23.7 µM)
92 | Fc1ccccc1Nc1nc2ccccc2o1 | 16.9 µg/mL (≈ 74 µM)
93 | COc1cc2c(cc1OC)CN(C(=O)c1ccc(Cl)c(S(=O)(=O)N3CCCC3)c1)CC2 | > 69.7 µg/mL
94 | O=C1/C(=C\c2ccsc2)NC(=S)N1c1ccccc1 | 4.5 µg/mL (≈ 15.7 µM)
95 | Cc1ccccc1-n1nc2c(c1NC(=O)C(C)(C)C)CS(=O)(=O)C2 | > 52.1 µg/mL
96 | CCN(CC)c1ccc(N2C(=O)/C(=C/c3ccccn3)SC2=S)cc1 | < 0.3 µg/mL
97 | CSc1ncccc1C(=O)OCc1c(F)cccc1Cl | 1.1 µg/mL (≈ 3.53 µM)
98 | O=C(c1ccco1)N1CCN(S(=O)(=O)c2ccccc2)CC1 | > 48.1 µg/mL
99 | Cl.Fc1ccc(-c2ccc(CNCc3ccccn3)o2)cc1 | 33.9 µg/mL
100 | OC(CNCc1cccs1)c1ccccc1 (stereo unspecified) | > 35 µg/mL

Row | SMILES | solubility kinetic
101 | Cc1noc(C(=O)NC2CCCCC2)c1Cl | 35.6 µg/mL (≈ 147 µM)
102 | Cn1c(=O)c2c(nc(N3CCOCC3)n2C/C=C/c2ccccc2)n(C)c1=O | 51.9 µg/mL (≈ 136 µM)
103 | Cc1[nH]c2ccccc2c1C(=O)CN1CCCC(C)C1 (stereo unspecified) | 40.5 µg/mL (≈ 150 µM)
104 | Cc1ccccc1-c1nnc(SCC(=O)NC2CCS(=O)(=O)C2)n1C (stereo unspecified) | > 57.1 µg/mL
105 | Nc1ccc(C(=O)O)c(O)c1 | > 23 µg/mL
106 | CC(=O)NC(c1ccc(C(C)C)cc1)c1ccc2cccnc2c1O (stereo unspecified) | 0.4 µg/mL (≈ 1.2 µM)
107 | Cc1ccc(S(=O)(=O)/N=C(/c2ccccc2)N(C)C)c(C)c1 | > 47.5 µg/mL
108 | O=S(=O)(c1ccc(-c2cc(C(F)(F)F)on2)s1)N1CCCC1 | 1 µg/mL (≈ 2.84 µM)
109 | COc1cccc(NC(=O)c2cccc(C(=O)Nc3cccc(OC)c3)c2)c1 | < 0.4 µg/mL
110 | CC(C)NC(=O)CSc1nccc(-c2cccs2)n1 | 38.7 µg/mL (≈ 132 µM)
111 | O=S1(=O)N=C(c2ccccc2)c2ccccc21 | 34.7 µg/mL (≈ 143 µM)
112 | Cc1cccnc1NC(=O)c1ccc2c(c1)OCCO2 | > 40.5 µg/mL
113 | Cc1ccc(CNC(=O)CN(C)S(=O)(=O)c2ccc(F)cc2)cc1 | 1.8 µg/mL (≈ 5.14 µM)
114 | CC(=O)Nc1cccc(-c2nc3ccccc3o2)c1 | 6.3 µg/mL (≈ 25 µM)
115 | CC(=O)C1=NOC2C(=O)N(c3ccc(Cl)cc3)C(=O)C12 (stereo unspecified) | > 43.9 µg/mL
116 | Cc1cc(NC(=O)c2ccc(Cl)cc2Cl)no1 | 3.5 µg/mL (≈ 12.9 µM)
117 | CC(C(=O)NCC1CCCCC1)N(C)Cc1cccc(Cl)c1 (stereo unspecified) | 22.8 µg/mL (≈ 70.6 µM)
118 | Cc1ccc(-c2cc(C(=O)O)c3ccccc3n2)s1 | > 40.4 µg/mL
119 | COc1ccc(NC2CCCN(Cc3cccc4cnccc34)C2)cc1 (stereo unspecified) | 49.4 µg/mL (≈ 142 µM)
120 | CCNC(=O)CC1C(=O)N(c2ccc(OC)cc2)C(=O)N1CCOC (stereo unspecified) | > 52.4 µg/mL
121 | Nc1sc2c(c1C(=O)NC1CC1)CCCC2 | 31 µg/mL (≈ 131 µM)
